# System: 935938-334-R-J1-PDC spheroids with HUVEC/MSC, viability
# Test: Anticancer human tumor 935938-334-R-J1-PDC patient-derived small intestine adenocarcinoma cell line growth inhibition [PI3K]
# Details: for IC50: curve of first compound; for viability, T/C: stronger effect = lower value
# Method in brief: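 Targeted small molecules plus PI3K inhibitors, half-log dose series from Cmax (default top 10 microM), were applied to heterotypic spheroids of cancer cells with HUVEC and MSCs. Viability indicated growth inhibition.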
# [1] = second compound 0.0316 µM, first compound 0.0316 µM
# [2] = second compound 0.0316 µM, first compound 0.1 µM
# [3] = second compound 0.0316 µM, first compound 0.316 µM
# [4] = second compound 0.0316 µM, first compound 1 µM
# [5] = second compound 0.0316 µM, first compound 3.16 µM
# [6] = second compound 0.0316 µM, first compound 10 µM
# [7] = second compound 0.1 µM, first compound 0.0316 µM
# [8] = second compound 0.1 µM, first compound 0.1 µM
# [9] = second compound 0.1 µM, first compound 0.316 µM
# [10] = second compound 0.1 µM, first compound 1 µM
# [11] = second compound 0.1 µM, first compound 3.16 µM
# [12] = second compound 0.1 µM, first compound 10 µM
# [13] = second compound 0.316 µM, first compound 0.0316 µM
# [14] = second compound 0.316 µM, first compound 0.1 µM
# [15] = second compound 0.316 µM, first compound 0.316 µM
# [16] = second compound 0.316 µM, first compound 1 µM
# [17] = second compound 0.316 µM, first compound 3.16 µM
# [18] = second compound 0.316 µM, first compound 10 µM
# [19] = second compound 1 µM, first compound 0.0316 µM
# [20] = second compound 1 µM, first compound 0.1 µM
# [21] = second compound 1 µM, first compound 0.316 µM
# [22] = second compound 1 µM, first compound 1 µM
# [23] = second compound 1 µM, first compound 3.16 µM
# [24] = second compound 1 µM, first compound 10 µM
# [25] = second compound 3.16 µM, first compound 0.0316 µM
# [26] = second compound 3.16 µM, first compound 0.1 µM
# [27] = second compound 3.16 µM, first compound 0.316 µM
# [28] = second compound 3.16 µM, first compound 1 µM
# [29] = second compound 3.16 µM, first compound 3.16 µM
# [30] = second compound 3.16 µM, first compound 10 µM
# [31] = second compound 10 µM, first compound 0.0316 µM
# [32] = second compound 10 µM, first compound 0.1 µM
# [33] = second compound 10 µM, first compound 0.316 µM
# [34] = second compound 10 µM, first compound 1 µM
# [35] = second compound 10 µM, first compound 3.16 µM
# [36] = second compound 10 µM, first compound 10 µM
# 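Further: compound exposure lasted seven days before viability was read.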
# 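Wherever viability, T/C is given: percent of vehicle DMSO treated spheroid viability so 100% = untreated.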
smiles,measurement,setting,value
CC1(C)CCC(CN2CCN(c3ccc(C(=O)NS(=O)(=O)c4ccc(NCC5CCOCC5)c([N+](=O)[O-])c4)c(Oc4cnc5[nH]ccc5c4)c3)CC2)=C(c2ccc(Cl)cc2)C1 + Cc1nc(NC(=O)N2CCCC2C(N)=O)sc1-c1ccnc(C(C)(C)C(F)(F)F)c1,IC50,second compound 0.0316 µM,6.77 µM
same,IC50,second compound 0.1 µM,7.42 µM
same,IC50,second compound 0.316 µM,6.51 µM
same,IC50,second compound 1 µM,5.32 µM
same,IC50,second compound 3.16 µM,4.25 µM
same,IC50,second compound 10 µM,< 0.0316 µM
same,"viability, T/C",[1],85.1%
same,"viability, T/C",[2],97.9%
same,"viability, T/C",[3],91.5%
same,"viability, T/C",[4],80.6%
same,"viability, T/C",[5],87.7%
same,"viability, T/C",[6],30.7%
same,"viability, T/C",[7],81.9%
same,"viability, T/C",[8],97.5%
same,"viability, T/C",[9],89.3%
same,"viability, T/C",[10],99.4%
same,"viability, T/C",[11],101%
same,"viability, T/C",[12],34.6%
same,"viability, T/C",[13],96.3%
same,"viability, T/C",[14],99%
same,"viability, T/C",[15],76.5%
same,"viability, T/C",[16],55.2%
same,"viability, T/C",[17],92.4%
same,"viability, T/C",[18],29.8%
same,"viability, T/C",[19],82%
same,"viability, T/C",[20],75.5%
same,"viability, T/C",[21],72.4%
same,"viability, T/C",[22],57.4%
same,"viability, T/C",[23],70.8%
same,"viability, T/C",[24],25.4%
same,"viability, T/C",[25],52.3%
same,"viability, T/C",[26],67%
same,"viability, T/C",[27],53.5%
same,"viability, T/C",[28],58.6%
same,"viability, T/C",[29],60%
same,"viability, T/C",[30],26.2%
same,"viability, T/C",[31],38.1%
same,"viability, T/C",[32],42.1%
same,"viability, T/C",[33],36.6%
same,"viability, T/C",[34],44.4%
same,"viability, T/C",[35],48%
same,"viability, T/C",[36],31.4%
CCCS(=O)(=O)Nc1ccc(F)c(C(=O)c2c[nH]c3ncc(-c4ccc(Cl)cc4)cc23)c1F + Cc1nc(NC(=O)N2CCCC2C(N)=O)sc1-c1ccnc(C(C)(C)C(F)(F)F)c1,IC50,second compound 0.0316 µM,6.36 µM
same,IC50,second compound 0.1 µM,6.49 µM
same,IC50,second compound 0.316 µM,5.57 µM
same,IC50,second compound 1 µM,5.52 µM
same,IC50,second compound 3.16 µM,4.6 µM
same,IC50,second compound 10 µM,0.0316 µM
same,"viability, T/C",[1],85.6%
same,"viability, T/C",[2],113%
same,"viability, T/C",[3],98.5%
same,"viability, T/C",[4],97.6%
same,"viability, T/C",[5],94.1%
same,"viability, T/C",[6],21.5%
same,"viability, T/C",[7],90.2%
same,"viability, T/C",[8],75.4%
same,"viability, T/C",[9],105%
same,"viability, T/C",[10],112%
same,"viability, T/C",[11],98.2%
same,"viability, T/C",[12],22.3%
same,"viability, T/C",[13],82%
same,"viability, T/C",[14],110%
same,"viability, T/C",[15],88.9%
same,"viability, T/C",[16],95.5%
same,"viability, T/C",[17],81.2%
same,"viability, T/C",[18],17.6%
same,"viability, T/C",[19],75.3%
same,"viability, T/C",[20],85%
same,"viability, T/C",[21],88%
same,"viability, T/C",[22],74.1%
same,"viability, T/C",[23],77.1%
same,"viability, T/C",[24],21.2%
same,"viability, T/C",[25],63.1%
same,"viability, T/C",[26],52.7%
same,"viability, T/C",[27],69%
same,"viability, T/C",[28],65.5%
same,"viability, T/C",[29],67.5%
same,"viability, T/C",[30],22.1%
same,"viability, T/C",[31],36.9%
same,"viability, T/C",[32],47.2%
same,"viability, T/C",[33],54.2%
same,"viability, T/C",[34],51.7%
same,"viability, T/C",[35],54.4%
same,"viability, T/C",[36],18.2%
CNC(=O)c1ccc(N2C(=S)N(c3ccc(C#N)c(C(F)(F)F)c3)C(=O)C2(C)C)cc1F + Cc1nc(NC(=O)N2CCCC2C(N)=O)sc1-c1ccnc(C(C)(C)C(F)(F)F)c1,IC50,second compound 0.0316 µM,> 10 µM
same,IC50,second compound 0.1 µM,> 10 µM
same,IC50,second compound 0.316 µM,> 10 µM
same,IC50,second compound 1 µM,> 10 µM
same,IC50,second compound 3.16 µM,< 0.0316 µM
same,IC50,second compound 10 µM,0.162 µM
same,"viability, T/C",[1],111%
same,"viability, T/C",[2],84.3%
same,"viability, T/C",[3],84.9%
same,"viability, T/C",[4],91.9%
same,"viability, T/C",[5],100%
same,"viability, T/C",[6],88%
same,"viability, T/C",[7],81.7%
same,"viability, T/C",[8],88.7%
same,"viability, T/C",[9],65.5%
same,"viability, T/C",[10],84.4%
same,"viability, T/C",[11],76.8%
same,"viability, T/C",[12],62.9%
same,"viability, T/C",[13],103%
same,"viability, T/C",[14],59.7%
same,"viability, T/C",[15],81.9%
same,"viability, T/C",[16],69.6%
same,"viability, T/C",[17],77%
same,"viability, T/C",[18],56.7%
same,"viability, T/C",[19],75.2%
same,"viability, T/C",[20],76.8%
same,"viability, T/C",[21],70.2%
same,"viability, T/C",[22],101%
same,"viability, T/C",[23],56.2%
same,"viability, T/C",[24],70.7%
same,"viability, T/C",[25],39.6%
same,"viability, T/C",[26],43.9%
same,"viability, T/C",[27],51%
same,"viability, T/C",[28],51.5%
same,"viability, T/C",[29],47%
same,"viability, T/C",[30],47.3%
same,"viability, T/C",[31],45.6%
same,"viability, T/C",[32],59.7%
same,"viability, T/C",[33],46.2%
same,"viability, T/C",[34],39.3%
same,"viability, T/C",[35],38.5%
same,"viability, T/C",[36],34.3%

# — PubChem BioAssay AID1963966 (Molecular Pharmacology Branch, DTP, NCI, 2024)
